“And” between values parts separate entries of the source, which are not always exact repeats. Equal entries are not always repeated. Where two headings read alike, the source gives them in different places.

The test system of data set [1] is wild chamomile (MATCH, Matricaria chamomilla). Description: Greenhouse postemergence herbicidal effect. Type of data set: in vivo. As to conditions: MATCH; Compound B 10 g/ha. Put shortly: (§1)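 Plants at the second or third true leaf stage, grown at about 23/22 °C day/night with a 14 h photoperiod, were sprayed postemergence. Emulsifiable concentrates held cloquintocet-mexyl safener at 120 g ai/L; rates are g ae/ha (pyridine carboxylate) or g ai/ha (ALS inhibitor). Injury was scored visually against solvent-blank controls at 20-22 d (0-100%).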

In data set [2] the test system is pigweed (AMARE, Amaranthus retroflexus). The experiment in a line: Greenhouse postemergence herbicidal effect. The data set is classed as in vivo. As to conditions: for Obs % visual injury: AMARE. The method, boiled down:
as §1

The subject of data set [3] is Canadian thistle (CIRAR, Cirsium arvense). The experiment in a line: Greenhouse postemergence herbicidal effect. The data set is classed as in vivo. Put shortly: as §1
Data set [4] relates to pineapple weed (MATMT, Matricaria discoidea). The experiment in a line: Greenhouse postemergence herbicidal effect. Type of data set: in vivo. As to conditions: MATMT; Compound B 10 g/ha. The method, boiled down:
as §1

Data set [5] deals with Russian thistle (SASKR, Salsola kali). Description: Greenhouse postemergence herbicidal effect. The following applies: SASKR; Compound B 10 g/ha. Type of data set: in vivo. Put shortly: as §1
Data set [6] deals with wild buckwheat (POLCO, Polygonum convolvulus). Description: Greenhouse postemergence herbicidal effect. Type of data set: in vivo. As to conditions: for Obs % visual injury: POLCO. Put shortly: as §1
Data set [7] has as its system wild pansy (VIOTR, Viola tricolor). The experiment in a line: Greenhouse postemergence herbicidal effect. Type of data set: in vivo. As to conditions: for Obs % visual injury: VIOTR. The method, boiled down: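 Injury was rated visually after 20-22 d on a 0 (none) to 100% (complete kill) scale relative to solvent-sprayed controls, with sub-irrigation to avoid wash-off. Rates were given in g ae/ha or g ai/ha depending on component.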

Data set [8] concerns chickweed (STEME, Stellaria media). Description: Greenhouse postemergence herbicidal effect. Type of data set: in vivo. The following applies: for Obs % visual injury: STEME. Put shortly: as §1
Data set [9] concerns winter rape (BRSNW, Brassica napus). The experiment in a line: Greenhouse postemergence herbicidal effect. The data set is classed as in vivo. As to conditions: BRSNW; Compound B 10 g/ha. Put shortly: as §1
Another data set has as its system spring wheat (TRZAS). The data set is classed as in vivo, Triticum aestivum. As to conditions: TRZAS. Put shortly:
as §1

For another data set, the system named is spring barley (HORVS). The data set is classed as in vivo, Hordeum vulgare. As to conditions: HORVS; Compound B 10 g/ha. The method, boiled down:
as §1

As to `C#CCOC(=O)c1nc(-c2ccc3cc[nH]c3c2F)c(F)c(N)c1Cl` [Compound B, propargyl 4-amino-3-chloro-5-fluoro-6-(7-fluoro-1H-indol-6-yl)pyridine-2-carboxylate], the “Obs % visual injury” value in [1] was 20% and 18%; in data set [2] (Compound B 5 g/ha) it was 93%; in data set [2] (Compound B 10 g/ha), 84% and 94%; in data set [3] (CIRAR, Compound B 5 g/ha), 50%; in [4], 20%; in [5], 63%. Further, the “Obs % visual injury” value in data set [6] (Compound B 5 g/ha) is 88%; in data set [6] (Compound B 10 g/ha), 97% and 87%; in data set [7] (Compound B 5 g/ha) it was 20%; in data set [7] (Compound B 10 g/ha) it was 18%; in [8] (Compound B 5 g/ha) it was 85%; in data set [8] (Compound B 10 g/ha) it was 95%. Besides, the “Obs % visual injury” value in [9] was determined as 93%; with spring wheat (TRZAS) (Compound B 5 g/ha), 13%; with spring wheat (TRZAS) (Compound B (without cloquintocet-mexyl safener) 10 g/ha) it was 28%; in the data set on spring barley (HORVS), 0%. In addition, the “% visual injury, Obs” value worked out at 73% in data set [2] (10 g/ha), 90% in data set [6] (10 g/ha), 8% in data set [7] (10 g/ha) and 90% in data set [8] (10 g/ha). Besides, in data set [3] (Cirsium arvense, post-emergence, 10 g/ha, read-out: % visual injury, Obs), the pest or weed control at 10 g/ha was found to be 55%.

Values taken from US12285012B2, “Compositions comprising pyridine carboxylate herbicides with acetolactate synthase (ALS) inhibitor herbicides” (Corteva Agriscience LLC, priority 2018, dated 2025).
